Common to all, as to assay type: functional
The test system of test [1] is Staphylococcus aureus. The test can be described thus: Antimicrobial activity against methicillin-resistant Staphylococcus aureus isolate 5.
The test system of test [2] is Staphylococcus aureus. Nature of the test: Antimicrobial activity against vancomycin-resistant Staphylococcus aureus isolate 15.
For test [3], the system named is Staphylococcus aureus. The test can be described thus: Antimicrobial activity against methicillin-susceptible Staphylococcus aureus isolate 2.
Test [4] has as its system Staphylococcus aureus. Nature of the test: Antimicrobial activity against methicillin-susceptible Staphylococcus aureus isolate 4.
The subject of test [5] is Staphylococcus aureus. Nature of the test: Antimicrobial activity against vancomycin-resistant Staphylococcus aureus isolate 12.
Test [6] has as its system Staphylococcus aureus. Nature of the test: Antimicrobial activity against vancomycin-susceptible Staphylococcus aureus isolate 11.
The subject of test [7] is Staphylococcus aureus. The test can be described thus: Antimicrobial activity against methicillin-resistant Staphylococcus aureus isolate 8.
Test [8] concerns Staphylococcus aureus. The test can be described thus: Antimicrobial activity against vancomycin-intermediate Staphylococcus aureus isolate 9.
Test [9] relates to Staphylococcus aureus. Nature of the test: Antimicrobial activity against methicillin-resistant Staphylococcus aureus isolate 7.
The subject of test [10] is Staphylococcus aureus. Nature of the test: Antimicrobial activity against vancomycin-resistant Staphylococcus aureus isolate 14.
Test [11] has as its system Staphylococcus aureus. The test can be described thus: Antimicrobial activity against vancomycin-resistant Staphylococcus aureus isolate 13.
The test system of test [12] is Staphylococcus aureus. Nature of the test: Antimicrobial activity against methicillin-resistant Staphylococcus aureus isolate 6.
The subject of test [13] is Staphylococcus aureus. Nature of the test: Antimicrobial activity against vancomycin-intermediate Staphylococcus aureus isolate 10.
Test [14] deals with Staphylococcus aureus. The test can be described thus: Antimicrobial activity against methicillin-susceptible Staphylococcus aureus isolate 3.
Test [15] deals with Staphylococcus aureus. Nature of the test: Antimicrobial activity against methicillin-susceptible Staphylococcus aureus isolate 1.

Structures are written as SMILES. In brackets after ≈: the same amount, converted by molar mass. Bounds are passed on as bounds.

What is called MIC is the lowest concentration found to suppress growth. With `CC12C[C@@]34C=CC(=O)[C@@](C)(CCC(=O)Nc5c(O)ccc(C(=O)O)c5O)C3[C@H](CC1C4)O2` (mixture of isomers) [PLATENSIMYCIN], the MIC worked out at 4 µg/mL in the test on Staphylococcus aureus [1]; 0.5 µg/mL in the test with Staphylococcus aureus [2]; 64 µg/mL against Staphylococcus aureus [3]; 2 µg/mL in the test on Staphylococcus aureus [4]; 1 µg/mL in the test with Staphylococcus aureus [5]; 2 µg/mL in the test with Staphylococcus aureus [6]. Moreover, the MIC is 4 µg/mL with Staphylococcus aureus [7]; 4 µg/mL against Staphylococcus aureus [8]; 16 µg/mL against Staphylococcus aureus [9]; 0.5 µg/mL against Staphylococcus aureus [10]; 1 µg/mL against Staphylococcus aureus [11]; 4 µg/mL against Staphylococcus aureus [12]. For the same molecule, the MIC with Staphylococcus aureus [13] worked out at 4 µg/mL; in the test with Staphylococcus aureus [14], 128 µg/mL; against Staphylococcus aureus [15], 4 µg/mL.

Consider `CC12CC3CC4(C=CC(=O)C(C)(CCC(=O)Nc5c(O)ccc(C(=O)O)c5O)C4C3O1)C2` (racemic) [ISOPLATENSIMYCIN], for which the MIC was more than 128 µg/mL with Staphylococcus aureus [1]; 4 µg/mL (≈ 9.06 µM) with Staphylococcus aureus [2]; more than 128 µg/mL against Staphylococcus aureus [3]; 128 µg/mL (≈ 290 µM) against Staphylococcus aureus [4]; 64 µg/mL (≈ 145 µM) in the test on Staphylococcus aureus [5]; 16 µg/mL (≈ 36.2 µM) against Staphylococcus aureus [6]. Also, the MIC was more than 128 µg/mL against Staphylococcus aureus [7]; more than 128 µg/mL with Staphylococcus aureus [8]; more than 128 µg/mL in the test with Staphylococcus aureus [9]; 2 µg/mL (≈ 4.53 µM) with Staphylococcus aureus [10]; 32 µg/mL (≈ 72.5 µM) in the test with Staphylococcus aureus [11]; more than 128 µg/mL in the test with Staphylococcus aureus [12]. The MIC was more than 128 µg/mL in the test on Staphylococcus aureus [13], more than 128 µg/mL against Staphylococcus aureus [14] and 128 µg/mL (≈ 290 µM) in the test with Staphylococcus aureus [15].

With `CN[C@H](CC(C)C)C(=O)N[C@H]1C(=O)N[C@@H](CC(N)=O)C(=O)N[C@H]2C(=O)N[C@H]3C(=O)N[C@H](C(=O)N[C@H](C(=O)O)c4cc(O)cc(O)c4-c4cc3ccc4O)[C@H](O)c3ccc(c(Cl)c3)Oc3cc2cc(c3O[C@@H]2O[C@H](CO)[C@@H](O)[C@H](O)[C@H]2O[C@H]2C[C@](C)(N)[C@H](O)[C@H](C)O2)Oc2ccc(cc2Cl)[C@H]1O` [VANCOMYCIN], the minimal inhibitory concentration (MIC) with Staphylococcus aureus [2] was more than 128 µg/mL; against Staphylococcus aureus [5], 32 µg/mL (≈ 22.1 µM); against Staphylococcus aureus [10], more than 128 µg/mL; in the test with Staphylococcus aureus [11], 128 µg/mL (≈ 88.3 µM).

As to `Cc1onc(-c2ccccc2)c1C(=O)N[C@@H]1C(=O)N2[C@@H]1SC(C)(C)[C@@H]2C(=O)O` [OXACILLIN], the MIC in the test with Staphylococcus aureus [1] was more than 128 µg/mL; against Staphylococcus aureus [3], 0.5 µg/mL (≈ 1.25 µM); in the test on Staphylococcus aureus [4], 0.5 µg/mL (≈ 1.25 µM); in the test with Staphylococcus aureus [7], more than 128 µg/mL; against Staphylococcus aureus [8], more than 128 µg/mL; against Staphylococcus aureus [9], 16 µg/mL (≈ 39.9 µM). Moreover, the MIC in the test with Staphylococcus aureus [12] was more than 128 µg/mL; against Staphylococcus aureus [13], more than 128 µg/mL; in the test on Staphylococcus aureus [14], 0.125 µg/mL (≈ 0.311 µM); in the test on Staphylococcus aureus [15], 0.125 µg/mL (≈ 0.311 µM).

Values taken from ChEMBL document CHEMBL1153466, “Isoplatensimycin: Synthesis and biological evaluation” (2009).
